Test system: 883617-216-R-J1-PDC tumor spheroids, viability
Test: Anticancer human tumor 883617-216-R-J1-PDC patient-derived bladder carcinoma cell line growth inhibition [PI3K]
Conditions: spheroids with HUVEC and MSC; for IC50: curve of first compound; for viability, T/C: stronger effect = lower value
Excerpt: Combinatorial screen of targeted agents with the PI3K inhibitors inavolisib, alpelisib, duvelisib, and copanlisib in multi-cell type tumor spheroids
A high-throughput screen of multi-cell type tumor spheroids was designed to identify active combinations of targeted small molecules and PI3K pathway inhibitors. Complex spheroids include a stromal component modeled by human endothelial cells (HUVEC) and fibroblasts modeled by human mesenchymal stem cells (MSCs). The concentration ranges selected for each drug and investigational agent were based upon clinically achievable concentrations if the clinical Cmax of the agent was known.
Compounds. The drugs and investigational agents: inavolisib (NSC800729), alpelisib (NSC765974), duvelisib (NSC772469), copanlisib (NSC816437), ipatasertib (NSC767898), afuresertib (NSC778305), talazoparib (NSC767125), sapanisertib (NSC764658), selumetinib (NSC741078), tovorafenib (DAY101, NSC766906), vemurafenib (NSC761431), ravoxertinib (NSC781343), sotorasib (NSC818433), MRTX1133 (NSC 836407), abemaciclib (NSC 768073), palbociclib (NSC758247), venetoclax (NSC 766270), SY5609 (NSC837396), enzalutamide (NSC755605), and darolutamide (NSC825331), were obtained from the National Cancer Institute (NCI) Developmental Therapeutics Program Chemical Repository. The FDA-approved anticancer drug set is available from the NCI Developmental Therapeutics Program. […] The stock solutions were prepared in dimethyl sulfoxide (DMSO, Sigma-Aldrich, St. Louis, MO, cat. D2650) at 800-fold the tested concentration and stored at -70 degrees C prior to their use. All drugs and investigational agents were tested over a range starting from a high concentration at or near the clinical Cmax and decreasing in half-log increments. If the clinical Cmax for an agent had not been determined, the highest concentration tested was 10 microM.
Cell Culture. All cells were maintained in an incubator at 37 degrees C and 5% CO2 with 95% humidity. The PDC lines were cultured according to standard operating procedures established by the NCI PDMR (https://pdmr.cancer.gov/sops/default.htm). All PDCs were thawed and cultured in Matrigel-coated flasks prepared with a working solution of 1X Ham's F-12 nutrient mix, without supplementation (Invitrogen, Waltham, MA, cat. 11765054), 100 U/mL penicillin-streptomycin (Invitrogen, cat. 15140122), and 2.5% Matrigel (Corning Inc., Corning, NY, cat. 354248) for the first three passages. The 354836-022-R-J1-PDC, 475296-252-R-J1-PDC, and 997726-040-R-J2-PDC lines were cultured in 6A media, which includes advanced DMEM/F-12 (Thermo Fisher Scientific, cat. 12634028), 10 mM HEPES (Thermo Fisher Scientific, cat. 15630080), 1X GlutaMAX supplement (Thermo Fisher Scientific, cat. 35050061), 0.1 mg/mL primocin (InvivoGen, San Diego, CA, cat. ant-pm-2), 10% defined fetal bovine serum, heat inactivated (HyClone Laboratories Inc., Logan, UT, cat. SH30070.03HI), 50% L-WRN conditioned media (ATCC, cat. CRL-3276), 1.25 mM N-Acetyl-L-cysteine (Sigma-Aldrich, cat. A9165), 10 mM nicotinamide (Sigma-Aldrich, cat. N0636), 1X B-27 supplement (Thermo Fisher Scientific, cat. 17504044), 1X N-2 supplement (Thermo Fisher Scientific, cat. 17502048), and 10 microM Y-27632 dihydrochloride (Tocris Bioscience, Bristol, United Kingdom, cat. 1254). The 624824-186-R-J2-PDC line was cultured in 6C/Colon 1B media, which includes all 6A media components plus 50 ng/mL human EGF recombinant protein (Thermo Fisher Scientific, cat. PHG0311). […]
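Note: spheroids exposed to agents for 7 days before the viability read.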

CC(=O)c1c(C)c2cnc(Nc3ccc(N4CCNCC4)cn3)nc2n(C2CCCC2)c1=O + CC(Nc1ccc2c(c1)OCCn1cc(N3C(=O)OCC3C(F)F)nc1-2)C(N)=O
IC50 (second compound 0.00316 µM): 74.3 nM | IC50 (second compound 0.01 µM): 54.3 nM | IC50 (second compound 0.0316 µM): 35.9 nM | IC50 (second compound 0.1 µM): 0.515 nM | IC50 (second compound 0.316 µM): < 0.316 nM | IC50 (second compound 1 µM): < 0.316 nM | viability, T/C (second compound 0.00316 µM, first compound 0.000316 µM): 99.1% | viability, T/C (second compound 0.00316 µM, first compound 0.001 µM): 97.3% | viability, T/C (second compound 0.00316 µM, first compound 0.00316 µM): 86.7% | viability, T/C (second compound 0.00316 µM, first compound 0.01 µM): 84.1% | viability, T/C (second compound 0.00316 µM, first compound 0.0316 µM): 67% | viability, T/C (second compound 0.00316 µM, first compound 0.1 µM): 43.6% | viability, T/C (second compound 0.01 µM, first compound 0.000316 µM): 78.1% | viability, T/C (second compound 0.01 µM, first compound 0.001 µM): 85.7% | viability, T/C (second compound 0.01 µM, first compound 0.00316 µM): 82% | viability, T/C (second compound 0.01 µM, first compound 0.01 µM): 78.7% | viability, T/C (second compound 0.01 µM, first compound 0.0316 µM): 55.9% | viability, T/C (second compound 0.01 µM, first compound 0.1 µM): 43.4% | viability, T/C (second compound 0.0316 µM, first compound 0.000316 µM): 74.2% | viability, T/C (second compound 0.0316 µM, first compound 0.001 µM): 78.9% | viability, T/C (second compound 0.0316 µM, first compound 0.00316 µM): 67.5% | viability, T/C (second compound 0.0316 µM, first compound 0.01 µM): 69.8% | viability, T/C (second compound 0.0316 µM, first compound 0.0316 µM): 51.2% | viability, T/C (second compound 0.0316 µM, first compound 0.1 µM): 34.9% | viability, T/C (second compound 0.1 µM, first compound 0.000316 µM): 52% | viability, T/C (second compound 0.1 µM, first compound 0.001 µM): 47.8% | viability, T/C (second compound 0.1 µM, first compound 0.00316 µM): 42.8% | viability, T/C (second compound 0.1 µM, first compound 0.01 µM): 42.6% | viability, T/C (second compound 0.1 µM, first compound 0.0316 µM): 32.2% | viability, T/C (second compound 0.1 µM, first compound 0.1 µM): 26.1% | viability, T/C (second compound 0.316 µM, first compound 0.000316 µM): 33.9% | viability, T/C (second compound 0.316 µM, first compound 0.001 µM): 26.1% | viability, T/C (second compound 0.316 µM, first compound 0.00316 µM): 26.7% | viability, T/C (second compound 0.316 µM, first compound 0.01 µM): 26.3% | viability, T/C (second compound 0.316 µM, first compound 0.0316 µM): 18.3% | viability, T/C (second compound 0.316 µM, first compound 0.1 µM): 15.8% | viability, T/C (second compound 1 µM, first compound 0.000316 µM): 18.6% | viability, T/C (second compound 1 µM, first compound 0.001 µM): 15.8% | viability, T/C (second compound 1 µM, first compound 0.00316 µM): 14.3% | viability, T/C (second compound 1 µM, first compound 0.01 µM): 14.8% | viability, T/C (second compound 1 µM, first compound 0.0316 µM): 15.5% | viability, T/C (second compound 1 µM, first compound 0.1 µM): 10.1%

Reference: PubChem BioAssay AID1963973 (Molecular Pharmacology Branch, DTP, NCI, 2024)
